Data on nine compounds can be found in patent publication US6525065B1, “Pharmaceutical compositions and methods for effecting dopamine release” (priority 1997, dated 2003).

Experiment [1] deals with ganglionic-type nicotinic acetylcholine receptors (Rattus norvegicus, UniProt P04757+P12392). Description: cell-based. The settings on record: read-out: Ganglion Effect Ecmax.
Experiment [2] addresses T1, muscle-type nicotinic acetylcholine receptors (Homo sapiens, UniProt P02708+P07510+Q07001).
T1 construct: endogenous in cells; host or cells: TE671/RD (own knowledge of the cited US 5,597,919)
Description: cell-based.

Experiment [3] has as its system dopamine release. Description: cells. The format is cell-based. Particulars: for EC50: read-out: Dopamine Release EC50; for Dopamine Release Ecmax: amount released relative to (S)-(-)-nicotine on a percentage basis.
[4] abbreviates: read-out: Dopamine Release Ecmax.
Setting [5] is: maximal activation as percentage of that induced by (S)-(-)-nicotine.
The mark [6] stands for this setting: read-out: Dopamine Release Ecmax, amount released relative to (S)-(-)-nicotine on a percentage basis.

Counter-ions that a name gives are not always drawn. Like-named read-outs stand apart in the source and are kept apart here.

Sequence of ganglionic-type nicotinic acetylcholine receptors (P04757 26-499): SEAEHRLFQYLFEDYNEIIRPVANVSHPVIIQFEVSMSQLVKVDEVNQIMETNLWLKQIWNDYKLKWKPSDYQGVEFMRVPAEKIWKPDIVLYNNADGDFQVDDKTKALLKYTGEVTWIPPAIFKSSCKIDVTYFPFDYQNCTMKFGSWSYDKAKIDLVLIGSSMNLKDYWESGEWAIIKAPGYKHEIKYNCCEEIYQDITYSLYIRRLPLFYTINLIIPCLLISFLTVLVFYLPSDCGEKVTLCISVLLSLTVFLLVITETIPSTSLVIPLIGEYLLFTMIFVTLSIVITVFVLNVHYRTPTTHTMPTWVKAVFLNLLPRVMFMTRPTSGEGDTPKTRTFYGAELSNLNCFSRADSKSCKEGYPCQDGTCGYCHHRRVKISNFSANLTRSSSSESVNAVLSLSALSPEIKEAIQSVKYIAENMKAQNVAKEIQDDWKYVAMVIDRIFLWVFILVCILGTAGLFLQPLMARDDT
Sequence of ganglionic-type nicotinic acetylcholine receptors (P12392 21-495): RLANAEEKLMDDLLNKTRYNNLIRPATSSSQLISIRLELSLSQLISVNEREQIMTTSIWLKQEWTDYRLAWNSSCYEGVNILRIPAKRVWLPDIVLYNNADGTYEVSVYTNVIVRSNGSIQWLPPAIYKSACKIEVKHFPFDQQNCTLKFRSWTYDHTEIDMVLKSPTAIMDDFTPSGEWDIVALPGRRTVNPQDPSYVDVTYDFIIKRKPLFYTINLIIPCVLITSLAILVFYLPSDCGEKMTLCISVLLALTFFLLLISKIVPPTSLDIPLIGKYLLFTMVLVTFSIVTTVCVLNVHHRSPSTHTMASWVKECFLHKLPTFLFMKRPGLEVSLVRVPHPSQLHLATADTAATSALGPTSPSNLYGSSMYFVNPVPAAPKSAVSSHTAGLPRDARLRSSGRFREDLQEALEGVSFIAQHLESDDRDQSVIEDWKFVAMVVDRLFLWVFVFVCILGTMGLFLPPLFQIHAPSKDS
T1 sequence (P02708 21-457): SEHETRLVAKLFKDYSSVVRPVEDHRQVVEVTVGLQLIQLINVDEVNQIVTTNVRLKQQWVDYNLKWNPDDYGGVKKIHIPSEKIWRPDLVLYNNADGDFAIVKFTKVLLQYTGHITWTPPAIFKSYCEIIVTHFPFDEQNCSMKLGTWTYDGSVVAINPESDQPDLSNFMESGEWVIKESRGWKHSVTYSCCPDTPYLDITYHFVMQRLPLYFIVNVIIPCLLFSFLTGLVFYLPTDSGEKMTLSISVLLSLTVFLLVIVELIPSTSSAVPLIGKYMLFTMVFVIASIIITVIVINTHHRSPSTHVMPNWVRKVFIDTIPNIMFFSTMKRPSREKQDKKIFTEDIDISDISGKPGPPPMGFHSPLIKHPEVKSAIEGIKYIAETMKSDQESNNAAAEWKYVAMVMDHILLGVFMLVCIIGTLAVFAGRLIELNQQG
T1 sequence (P11230 24-501 partner): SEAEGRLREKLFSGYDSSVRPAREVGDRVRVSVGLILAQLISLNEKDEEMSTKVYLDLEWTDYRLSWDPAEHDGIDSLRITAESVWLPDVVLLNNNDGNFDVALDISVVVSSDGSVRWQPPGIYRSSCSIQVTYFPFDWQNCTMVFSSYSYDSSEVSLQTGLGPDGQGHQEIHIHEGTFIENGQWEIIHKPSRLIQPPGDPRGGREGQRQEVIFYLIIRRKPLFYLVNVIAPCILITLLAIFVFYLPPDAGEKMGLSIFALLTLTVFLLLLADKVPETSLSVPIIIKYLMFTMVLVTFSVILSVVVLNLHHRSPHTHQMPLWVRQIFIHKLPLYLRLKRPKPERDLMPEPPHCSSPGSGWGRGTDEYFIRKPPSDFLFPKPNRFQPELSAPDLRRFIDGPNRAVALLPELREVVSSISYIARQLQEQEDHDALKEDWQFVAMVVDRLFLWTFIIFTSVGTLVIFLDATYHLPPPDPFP
T1 sequence (Q07001 22-517): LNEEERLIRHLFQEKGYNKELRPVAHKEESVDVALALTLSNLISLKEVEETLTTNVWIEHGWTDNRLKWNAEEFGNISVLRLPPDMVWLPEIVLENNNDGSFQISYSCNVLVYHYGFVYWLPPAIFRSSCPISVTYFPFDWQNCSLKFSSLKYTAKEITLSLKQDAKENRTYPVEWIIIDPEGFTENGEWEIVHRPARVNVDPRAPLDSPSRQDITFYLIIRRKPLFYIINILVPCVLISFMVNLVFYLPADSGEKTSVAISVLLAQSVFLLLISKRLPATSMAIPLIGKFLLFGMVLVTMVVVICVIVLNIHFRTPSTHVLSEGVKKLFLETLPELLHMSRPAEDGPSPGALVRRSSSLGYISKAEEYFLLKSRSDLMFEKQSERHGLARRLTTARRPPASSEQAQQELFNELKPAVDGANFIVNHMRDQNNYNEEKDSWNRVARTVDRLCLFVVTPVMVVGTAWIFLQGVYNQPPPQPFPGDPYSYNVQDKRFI
T1 sequence (P07510 23-517): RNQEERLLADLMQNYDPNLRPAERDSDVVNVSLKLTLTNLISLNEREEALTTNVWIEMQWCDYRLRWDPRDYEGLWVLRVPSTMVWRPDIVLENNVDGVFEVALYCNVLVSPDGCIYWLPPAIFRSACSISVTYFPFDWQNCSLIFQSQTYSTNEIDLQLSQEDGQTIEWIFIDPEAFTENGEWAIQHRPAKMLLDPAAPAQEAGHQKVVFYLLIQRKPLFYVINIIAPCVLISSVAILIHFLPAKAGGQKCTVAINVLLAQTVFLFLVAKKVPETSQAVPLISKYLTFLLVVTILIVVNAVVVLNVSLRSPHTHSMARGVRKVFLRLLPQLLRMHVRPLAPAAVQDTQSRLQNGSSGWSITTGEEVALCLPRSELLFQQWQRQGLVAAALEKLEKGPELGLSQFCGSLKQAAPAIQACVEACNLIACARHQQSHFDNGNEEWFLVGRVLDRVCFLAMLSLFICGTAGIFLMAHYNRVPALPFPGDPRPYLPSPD

`c1cncc(C2CC3CCN2CC3)c1` (racemic) [Sample No. 1, (+/−)-1-aza-2-(3-pyridyl)bicyclo[2.2.2]octane]: the Emax in experiment [1] came to 85%; in experiment [3] (setting [4]), 40%. For the same compound, the “Muscle Effect Ecmax” value in experiment [2] is 110%. Besides, in experiment [3], the EC50 was 2 nM.

`Brc1cncc(C2CC3CCN2CC3)c1` (racemic) [Sample No. 2]: the Emax in experiment [1] was 106%. The “Muscle Effect Ecmax” value in experiment [2] (setting [5]) is 133%. In experiment [3], the “Dopamine Release Ecmax” value was 43% and the EC50 worked out at 2 nM.

As for `c1cncc([C@H]2C[C@@H]3CCN2C3)c1` (relative stereo) [Sample No. 3, exo 1-aza-2-(3-pyridyl)bicyclo[2.2.1]heptane], the Emax in experiment [1] worked out at 100%; in experiment [3] (setting [6]), 130%. The figures for the EC50 in experiment [2] and in experiment [3] were 100 nM and 6 nM, respectively. Further, in experiment [2] (setting [5]), the “Muscle Effect Ecmax” value is 130%.

On to `c1cncc([C@@H]2C[C@@H]3CCN2C3)c1` (relative stereo) [Sample No. 4, endo-1-aza-2-(3-pyridyl)bicyclo[2.2.1]heptane], for which the “Muscle Effect Ecmax” value in experiment [2] (setting [5]) is reported as 130%. Moreover, the EC50 in experiment [2] (read-out: Muscle Effect EC50) is 100 nM. In experiment [3], the “Dopamine Release Ecmax” value was determined as 114% and the EC50 is 33 nM.

As to `c1cncc(C2C3CCN2CC3)c1` (stereo not drawn) [Sample No. 5, 1-aza-7-(3-pyridyl)bicyclo[2.2.1]heptane], the Emax in experiment [1] was determined as 120%; in experiment [3] (setting [6]), 93%. The EC50 in experiment [2] amounted to 300 nM; in experiment [3], 4 nM. Besides, the “Muscle Effect Ecmax” value in experiment [2] (setting [5]) is reported as 130%.

Take `Nc1cncc(C2CC3CCN2CC3)c1` (stereo not drawn) [Sample No. 6, 5-(1-azabicyclo[2.2.2]oct-2-yl-3-(amino)pyridinetrihydrochloride]: in experiment [1] (setting [5]), the Emax turned out to be 75%. For the same compound, the “Muscle Effect Ecmax” value in experiment [2] (setting [5]) was determined as 100%. Also, the EC50 in experiment [2] (read-out: Muscle Effect EC50) amounted to 3000 nM. In experiment [3], the “Dopamine Release Ecmax” value was found to be 43% and the half-maximal effective concentration (EC50) came to 7 nM. Further, the “amounts causing muscle effects and effects upon ganglia relative to those required to cause dopamine release” value in experiment [3] (selectivity of dopamine release over muscle and ganglion effects) is “many times”.

On to `CCOc1cncc(C2CC3CCN2CC3)c1.Cl.Cl` (stereo not drawn) [Sample No. 7, 5-(1-azabicyclo[2.2.2]oct-2-yl)-3-(ethoxy)pyridine dihydrochloride], for which the Emax in experiment [1] is 86%; in experiment [3] (setting [6]), 40%. Besides, the concentration giving a half-maximal response (EC50) is 700 nM in experiment [2] and 5 nM in experiment [3]. Further, the “Muscle Effect Ecmax” value in experiment [2] (setting [5]) was 137%.

With `CC(C)Oc1cncc(C2CC3CCN2CC3)c1` (stereo not drawn) [Sample No. 8, 5-(1-azabicyclo[2.2.2]oct-2-yl-3-(isopropyloxy)pyridinedihydrochloride], the Emax in experiment [1] was determined as 94%. Moreover, the EC50 in experiment [2] (read-out: Muscle Effect EC50) was 3000 nM.

On to `CN1CCC[C@H]1c1cccnc1` [Sample No. C-1, (S)-(−)-nicotine, reference compound], for which, in experiment [2], a half-maximal effect (EC50) was put at 60000 nM and the “Muscle Effect Ecmax” value turned out to be 100%. For the same compound, in experiment [3], the half-maximal effective concentration (EC50) stood at 115 nM. The Emax in experiment [3] (setting [4]) came to 100%.

What is called EC50 is the concentration that produces a half-maximal response.
